The text below walks through data of article PMC6262012, “IMB-T130 targets 3-dehydroquinate synthase and inhibits Mycobacterium tuberculosis” (Scientific Reports, 2018).

The structures appear in SMILES notation. Values after ≈ are worked out from the molar mass of the structure shown. Like-named read-outs stand apart in the source and are kept apart here. Some results are limits rather than exact numbers.

For series [1], the system named is M. smegmatis strain overexpressing MtDHQS. Nature of the series: MIC by plate dilution, M. smegmatis overexpressing MtDHQS. Type of series: cell-based, Mycobacterium smegmatis. As to conditions: for MIC: Overexpressing MtDHQS. An excerpt: (§1) To overexpress the MtDHQS protein in M. smegmatis, we used the plasmid pMV261-eGFP. The DHQS gene was inserted between the promoter and eGFP gene using BamHI and HindIII restriction enzyme sites so that DHQS was in frame with eGFP. The resulting pMV261:DHQS-eGFP plasmid was transformed into competent M. smegmatis cells. Recombinant protein expression was confirmed by fluorescence microscopy and western blotting with an anti-eGFP antibody. The MICs of IMB-T130 against M. smegmatis with a control vector (pMV261-eGFP plasmid), strains overexpressing a non-related gene (MtL12), and strains overexpressing DHQS-eGFP were determined by the conventional plate dilution method.

Series [2] is described as follows: Pharmacokinetic studies in rats. It is filed as in vivo. The note with it: male, Sprague Dawley, rat; for half-life: plasma. As for the experimental part: Pharmacokinetic parameters were determined after administration of single oral and intravenous (iv) doses of IMB-T130 at 20 and 5 mg/kg, respectively, in male Sprague Dawley rats.
Animal care and all experimental procedures were performed in accordance with local, national, and ethical principles and authority regulations, and were approved by the Institutional Animal Care and Use Committee of the Institute of Medicinal Biotechnology Institute. Sprague Dawley rats (226.5–261.2 g) were used in the pharmacokinetic studies. The formulation of IMB-T130 (4 mg/mL) was prepared in 5 mL water with 0.5% sodium carboxyl methyl cellulose for oral administration. For iv administration, 7.5 mg IMB-T130 was dissolved in 0.075 mL N-methyl pyrrolidone, and 0.6 mL of PEG400 and 0.825 mL of 20% hydroxypropyl-β-cyclodextrin (aq) were added. After vortexing for 5 min, the 5 mg/mL IMB-T130 formulation was prepared. Rats were dosed at 1 mL/kg by iv injection and at 5 mL/kg by oral gavage at 0 h. A 0.2 mL blood sample was drawn from the jugular vein at 5, 15, and 30 min, and 1, 2, 4, 6, 8, and 24 h. The blood samples were centrifuged (8000 rpm, 6 min) at 4 °C for plasma separation. The IMB-T130 plasma concentration was determined by liquid chromatography-mass spectrometry using an ACQUITY UPLC BEH C18 column (Waters; 1.7 µm, 2.1 × 50 mm)[30].

The subject of series [3] is M. smegmatis strain with control vector (PMV261 plasmid). Description: MIC by plate dilution, M. smegmatis with control vector. It is filed as cell-based, Mycobacterium smegmatis.
From the text: as §1

Series [4] addresses T1, DHQS (Mycobacterium tuberculosis, UniProt P9WPX9). Description: HPLC-Q-TOF mass spectrometry of intact DHQS after incubation with IMB-T130. As to conditions: suggests non-covalent binding. As for the experimental part:
In this study, HPLC-Q-TOF mass spectrometry was also performed to determine the molecular mass of the protein.

Series [5] has as its target Mycobacterium tuberculosis 3-dehydroquinate synthase (MtDHQS) (Mycobacterium tuberculosis, UniProt P9WPX9). Nature of the series: DHQS enzyme assay (malachite green, free phosphoric acid). Type of series: biochemical. As for the experimental part:
DHQS catalyse the conversion of DAHP to DHQ, and release a molecule of free phosphoric acid. The reaction was performed in a 50-µL volume with DHQS (1 μg/mL), NAD^+ (40 μg/mL), DAHP (10 μg/mL), and Tris-HCl (50 mM, pH 7.5). The solution was added to a 96-well plate and incubated for 40 min at 37 °C. Then, 100 µL of malachite green solution was added and the absorbance of the solution was measured at 620 nm[27].
We screened compounds with anti M. smegmatis activity for DHQS inhibitors. DHQS protein was pre-incubated with 0.5 μL of the test compound (10 μg/mL, dissolved in DMSO) at room temperature for 30 min in 49.5 μL of buffer (without DAHP); for the control group, 0.5 μL of DMSO was added. The reaction was initiated by adding 0.5 μL of DAHP solution followed by incubation (40 min, 37 °C). The absorbance was measured by a microplate reader. […] DHQS (1 μg/mL) was pre-incubated with increasing IMB-T130 concentrations (0.16–40 μg/mL) for 30 min at room temperature, with 1% DMSO used as a control.

Series [6] deals with M. tuberculosis H37Rv (ATCC27294) in J774A.1 mouse monocyte macrophages. Description: Intracellular anti-TB activity in macrophages. Type of series: cell-based, Mycobacterium tuberculosis. The note with it: for Log10CFU: 3 days, control 5.13 ± 0.03; for reduction in M. tuberculosis colony forming units (CFU): 3 days exposure.
The target in series [7] is T1, DHQS. Nature of the series: Circular dichroism spectrum of DHQS and its complex with IMB-T130. It is filed as binding. An excerpt:
CD is widely used to examine protein structures in solution. In the far UV spectral region (180–240 nm), the CD spectrum reflects the absorption of peptide bonds, and provides some information about the secondary structural features of a protein[18]. We determined the CD spectrum of the native DHQS and the complex of DHQS and IMB-T130.

Series [8] addresses T1, DHQS. Nature of the series: SPR interaction between DHQS and IMB-T130 (NTA sensor chip). As to conditions: 1.875–30 μM IMB-T130. It is filed as binding. As for the experimental part:
Surface plasmon resonance (SPR) could detect interactions between compounds and proteins. DHQS protein is unstable under acidic conditions, so the combination of IMB-T130 and DHQS was detected using nitrilotriacetic acid (NTA) sensor chip. The chips were coated with […] to capture the His-tagged protein and then exposed to a concentration gradient (1.875–30 μM) of IMB-T130. The response units were determined by SPR[16],[17].
An SPR experiment was performed to examine the interaction between DHQS and IMB-T130. Because the protein was unstable under acidic conditions, CM5 sensor chips were not suitable. […] The sensor chips were first coated with Ni^2+ before capturing the purified DHQS. Next, the chip was exposed to different concentrations of IMB-T130, and the response units for five different concentrations (1.875–30 μM) of IMB-T130 were measured by SPR (BIAcore X100 instrument, GE Healthcare).

Series [9] in a line: Oral tolerability in ICR mice. It is filed as in vivo. As for the experimental part:
We speculated that the compound might have anti-TB activity in vivo. IMB-T130 was well tolerated in ICR mice at up to 500 mg/kg administered orally.

The subject of a further series is M. tuberculosis. As to conditions: cited from earlier work.
Series [10] relates to M. smegmatis strain overexpressing MtL12. Nature of the series: MIC by plate dilution, M. smegmatis overexpressing MtL12. It is filed as cell-based, Mycobacterium smegmatis. As to conditions: Mycolicibacterium smegmatis.
From the text: as §1

Where [11] appears, read: Mycolicibacterium smegmatis, read-out: MIC.

Chain of Mycobacterium tuberculosis 3-dehydroquinate synthase (MtDHQS) (P9WPX9 whole entry): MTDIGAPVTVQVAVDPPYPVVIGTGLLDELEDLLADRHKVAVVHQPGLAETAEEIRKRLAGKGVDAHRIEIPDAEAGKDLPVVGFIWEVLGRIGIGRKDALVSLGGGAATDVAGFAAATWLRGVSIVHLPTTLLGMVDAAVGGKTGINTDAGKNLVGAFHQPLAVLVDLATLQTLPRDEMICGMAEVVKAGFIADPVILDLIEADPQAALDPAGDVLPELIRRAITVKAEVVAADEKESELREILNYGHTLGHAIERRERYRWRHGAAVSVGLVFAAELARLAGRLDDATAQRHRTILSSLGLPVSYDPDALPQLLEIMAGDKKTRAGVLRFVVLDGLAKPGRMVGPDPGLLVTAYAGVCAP
T1 sequence (P9WPX9 whole entry): as above

As usually defined, the MIC is the least concentration at which growth counts as inhibited. The half-life is the time in which the quantity being followed falls by half. Usually bioavailability stands for the share of a dose that reaches the circulation, judged against a reference dose that is usually intravenous. The low end stands for poor availability, the high end for good availability. Usually AUC(0-t) stands for the area under the concentration-time curve up to a stated or last time point. A low value points to low exposure. In general, Vd refers to the apparent volume that relates the amount in the body to the concentration in plasma or blood. High values mean extensive tissue distribution, low ones confinement near the circulation. Usually clearance stands for the rate of elimination divided by the concentration. A low value points to a low capacity for elimination. Usually Cmax stands for the maximum level reached in the sampled fluid or tissue. In general, Tmax refers to the time at which the peak concentration occurs. A word on the IC50: it is the point on the concentration scale where inhibition reaches its midpoint. Low values mean greater potency, high ones weaker potency. In the case of `O=C(Nc1nc(-c2ccccn2)cs1)c1ccc(Cl)s1` [IMB-T130, 5-chloro-N-[4-(pyridin-2-yl)-1,3-thiazol-2-yl] thiophene-2-carboxamide], the “MIC of DHQS-overexpression strain relative to control strain” value in [1] (DHQS-overexpression vs PMV261 control strain) is “eight-fold higher”. Also, the MIC in series [1] (setting [11]) worked out at 2.5 µg/mL (≈ 7.77 µM); in series [1] it was 2.5 µg/mL (≈ 7.77 µM); in series [3] it was 0.312 µg/mL (≈ 0.97 µM); in [3] (setting [11]), 0.312 µg/mL (≈ 0.97 µM); in series [10] it was 0.312 µg/mL (≈ 0.97 µM). For the same molecule, the results for the half-life in [2] (iv 5 mg/kg) and in series [2] (po 20 mg/kg) were 2.13 h and 2.17 h, respectively. This molecule gave a bioavailability in series [2] (in vivo) of 12.8%. The exposure AUC(0-t) in series [2] (in vivo, iv, 5 mg/kg) amounted to 1.07 ng·h/mL; in series [2] (in vivo, po, 20 mg/kg) it was 0.55 ng·h/mL. In [2] (in vivo, iv, 5 mg/kg), this molecule came in with a distribution volume (Vd) of 14.9 L/kg. For the same molecule, the clearance in series [2] (in vivo, iv, 5 mg/kg) is 83.2 mL/min/kg. In series [2] (in vivo, po, 20 mg/kg), this molecule yielded a Cmax of 116 ng/mL. Moreover, in [2] (in vivo, po, 20 mg/kg), the Tmax stood at 1.5 h. The “time exposure was higher than the MIC (80 ng/mL)” value in series [2] (in vivo, po, 20 mg/kg) is given as “about 4 hours”. In addition, the “intact mass of DHQS after incubation with compound” value on DHQS [4] was “did not increase”. This molecule also gave an IC50 in series [5] (IC50, DHQS 1 μg/mL, pre-incubated 30 min at room temperature) of 2700 nM. Moreover, the remaining activity at 10 µg/mL in series [5] (read-out: OD630 as % of the control (1% DMSO)) was < 50%. Moreover, the Log10CFU is 4.85 ± 0.06 in series [6] (1 μg/mL), 4.06 ± 0.03 in [6] (5 μg/mL) and 3.77 ± 0.10 in [6] (10 μg/mL). The “reduction in M. tuberculosis colony forming units (CFU)” value is listed as 1.07 log10 in series [6] (5 μg/mL) and 1.36 log10 in series [6] (10 μg/mL). For the same molecule, the “β-turn composition of DHQS in the complex” value at DHQS [7] (native protein 11.2%) was determined as 12.4%. Moreover, the “random coil composition of DHQS in the complex” value at DHQS [7] (native protein 13.4%) was 16.8%. The “α-helix composition of DHQS in the complex” value on DHQS [7] (native protein 71.6%) is given as 63.3%. At DHQS [8], the SPR response units entry was “significant dose-dependent response”. In addition, the “well tolerated oral dose” value in series [9] (administered orally) is given as “up to 500 mg/kg”. In series [9] (oral, over 72 hours), the adverse effects entry was “No adverse effects were observed”. Also, the “minimum inhibitory concentration MIC” value with M. tuberculosis (strain not printed at the place) is 0.08 µg/mL (≈ 0.249 µM). Moreover, the “anti-TB activity for susceptible strains” value with M. tuberculosis (susceptible strains) is “comparable anti-TB activity to rifampicin (RFP) and isoniazid (INH)”.
Regarding `CO[C@H]1/C=C/O[C@@]2(C)Oc3c(C)c(O)c4c(O)c(c(/C=N/N5CCN(C)CC5)c(O)c4c3C2=O)NC(=O)/C(C)=C\C=C\[C@H](C)[C@H](O)[C@@H](C)[C@@H](O)[C@@H](C)[C@H](OC(C)=O)[C@@H]1C` [RFP, rifampicin, reference compound], the Log10CFU in [6] (0.5 μg/mL) came to 4.25 ± 0.07; in series [6] (2 μg/mL), 3.74 ± 0.05; in series [6] (5 μg/mL) it was 3.29 ± 0.12. Besides, in [6] (5 μg/mL), the “reduction in M. tuberculosis colony forming units (CFU)” value is given as 1.84 log10.
Take `[H]/N=C(/N)N[C@H]1[C@H](O)[C@@H](O)[C@H](O[C@@H]2O[C@@H](C)[C@](O)(C=O)[C@H]2O[C@@H]2O[C@@H](CO)[C@H](O)[C@@H](O)[C@@H]2NC)[C@@H](N/C(N)=N\[H])[C@@H]1O` [Streptomycin, reference compound]: the minimum inhibitory concentration (MIC) in series [1] (setting [11]), in series [3] (setting [11]) and in [10] was 0.156 µg/mL (≈ 0.268 µM) each time.
